From EPA's ToxValDB 9.5 (doi:10.2903/j.efsa.2006.86r) come the findings set out here.

Values after ≈ are worked out from the molar mass of the structure shown.

One series deals with Apis mellifera. Particulars: acute, mortality.
A further series concerns Canidae. Particulars: chronic; duration: 1 years; oral; Dog Other; clinical chemistry.
For a further series, the system named is Coturnix japonica. Particulars: acute; oral; mortality.
In a further series the test system is Daphnia magna. Particulars: chronic/long-term; duration: 21 days.
For another series, the system named is Aphidius rhopalosiphi. Description: LR50; higher = less toxic. Particulars: acute; duration: 48 hours; reproduction.
A further series relates to Typhlodromus pyri. Description: LR50; higher = less toxic. Particulars: acute; duration: 48 hours; reproduction.

Take `CCS(=O)CCSP(=O)(OC)OC` (stereo unspecified) [Oxydemeton-methyl]: the NOEC is 7.65 mg/kg-day in the series with Anas platyrhynchos (reproductive); 0.97 mg/kg-day in the series on Colinus virginianus (reproduction developmental); 0.027 mg/L with Daphnia magna; 1.8 mg/L in the series on Oncorhynchus mykiss (chronic/long-term, duration: 98 days); 412 g/ha with Tagia sp. (chronic/long-term, duration: 56 days, reproduction). For the same compound, the NOEL with Anas platyrhynchos (short-term, oral, feed, mortality) is 119 mg/kg-day; with Colinus virginianus (short-term, oral, diet, mortality), 56.6 mg/kg-day. The LD50 in the series with Apis mellifera (duration: 48 hours, oral, unspecified) was 0.2 µg/piece; in the series on Apis mellifera (duration: 72 hours, dermal), 0.175 µg/piece; in the series with Colinus virginianus (acute, oral, M, mortality), 34 mg/kg; in the series with Coturnix japonica, 29 mg/kg; in the series on Rattus norvegicus (acute, oral, mortality) it was 48 mg/kg. Also, the NOAEL in the series on Canidae came out at 0.1 mg/kg-day; in the series with Rattus norvegicus (chronic, duration: 2 years, clinical chemistry), 0.03 mg/kg-day; in the series with Rattus norvegicus (reproduction developmental, M, reproduction), 0.15 mg/kg-day; with Rattus norvegicus (short-term, duration: 14 days, oral, clinical chemistry), 0.15 mg/kg-day; in the series with Rattus norvegicus (subchronic, duration: 90 days, oral, clinical chemistry), 0.1 mg/kg-day. Moreover, the LC50 with Oncorhynchus mykiss (acute, duration: 96 hours, mortality) was found to be 17 mg/L (≈ 69 µM); with Tagia sp. (acute, duration: 14 days, mortality), 115 mg/kg. The LR50 in the series with Aphidius rhopalosiphi turned out to be 42.5 g/ha; with Typhlodromus pyri it was 143 g/ha.
